Laboratory results taken from publication PMC4728427, “Mechanism of allosteric activation of TMEM16A/ANO1 channels by a commonly used chloride channel blocker” (British Journal of Pharmacology, 2016).
Read-outs that look alike come from different tables or passages of the source.

Biological target: T1, Mouse TMEM16A (Mus musculus, UniProt Q8BHY3)
T1 construct: expressed in transfected cells; host or cells: HEK-293T
T1 sequence (Q8BHY3 1-960): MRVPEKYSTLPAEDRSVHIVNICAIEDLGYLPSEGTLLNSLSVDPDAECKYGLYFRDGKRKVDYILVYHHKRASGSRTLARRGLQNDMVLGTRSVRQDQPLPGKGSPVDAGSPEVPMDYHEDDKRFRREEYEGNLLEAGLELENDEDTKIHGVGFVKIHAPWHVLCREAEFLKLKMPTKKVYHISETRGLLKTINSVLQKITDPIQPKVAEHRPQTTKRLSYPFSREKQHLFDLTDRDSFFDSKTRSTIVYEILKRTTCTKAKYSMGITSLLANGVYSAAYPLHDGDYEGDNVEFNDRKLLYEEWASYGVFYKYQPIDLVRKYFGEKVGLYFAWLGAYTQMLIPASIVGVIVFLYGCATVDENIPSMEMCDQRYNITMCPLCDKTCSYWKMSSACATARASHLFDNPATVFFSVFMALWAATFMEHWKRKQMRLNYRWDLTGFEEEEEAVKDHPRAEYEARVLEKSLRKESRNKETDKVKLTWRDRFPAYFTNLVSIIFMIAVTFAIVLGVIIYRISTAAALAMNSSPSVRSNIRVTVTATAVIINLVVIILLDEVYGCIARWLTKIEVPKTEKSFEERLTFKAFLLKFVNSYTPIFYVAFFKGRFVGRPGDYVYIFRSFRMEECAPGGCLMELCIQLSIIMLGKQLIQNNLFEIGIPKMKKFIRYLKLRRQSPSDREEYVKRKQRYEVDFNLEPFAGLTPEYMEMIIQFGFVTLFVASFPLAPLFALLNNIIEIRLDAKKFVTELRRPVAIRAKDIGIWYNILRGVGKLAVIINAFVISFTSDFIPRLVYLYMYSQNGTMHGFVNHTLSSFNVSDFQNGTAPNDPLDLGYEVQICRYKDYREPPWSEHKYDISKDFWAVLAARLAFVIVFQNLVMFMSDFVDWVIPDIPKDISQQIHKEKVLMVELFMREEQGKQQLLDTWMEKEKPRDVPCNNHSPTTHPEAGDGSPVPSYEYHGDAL
Assay: Whole-cell concentration-jump protocol separating A9C block and activation, 300 nM [Ca2+]i
Assay type: cell-based
Conditions: for Ki: read-out: K i(0); for I a/I 0 for activation / fractional inhibition (I b/I 0): 30 μM [A9C]ext, +70 mV; for EC50 / IC50: [A9C]ext; for EC50: read-out: EC50 (b) activation; for IC50: read-out: IC50 (a) inhibition
Experimental: TMEM16A currents were measured with the whole‐cell or inside‐out patch configuration of the patch‐clamp technique as detailed in the Supporting Information. The exchange of solutions was achieved by using a local perfusion system consisting of eight tubes of 1.2 mm diameter in which the tip of the patch pipette was inserted. In some experiments, ultra‐rapid (<50 ms) changes in A9C concentration ([A9C]) (‘concentration jumps’) were achieved using a computer‐controlled perfusion system (Warner Instruments, Hamden, CT, USA).
The relationship between [A9C] and TMEM16A current inhibition was obtained by measuring the currents at the end of 250 ms V m steps from +20 to +120 mV in 20 mV increments elicited every 2 s from a holding V m of −70 mV. TMEM16A currents measured in the presence of A9C (I b) were normalized to currents measured in the absence of A9C (I 0) and plotted against [A9C]. The concentration–response curves obtained were fit with the Hill equation of the form: (1) Ib/Io=1/1+A9C/Ki^γ,
where K i is the apparent A9C dissociation constant from the inhibitory site and γ is the coefficient of cooperativity (Hill coefficient).
The dose–response curves for activation by A9C were fitted with a modified Hill equation of the form: (2) Ia/Io=1+Amax−1/1+A9C/Kd^h,
where I a is the current in the presence of A9C, A max is the maximal current activation, K d is the apparent A9C dissociation constant from the activating site and h is the coefficient of cooperativity (Hill coefficient).
The relationships between the K i or K d and V m were fitted with the Woodhull equation (Woodhull, 1973): (3) Kx=Kx0exp−δxzFVm/RT.
The subscript ‘x’ stands for either ‘i’ or ‘d’. Thus, K i(0) or K d(0) are the apparent A9C dissociation constants from the inhibitory or activating site at 0 mV, z is the A9C electric valence (−1), δ i or δ d is the fraction of the V m sensed by A9C when bound to the inhibitory or activating site, F is Faraday's constant, R is the universal gas constant and T is the absolute temperature.
To study the activating effect of extracellular A9C on TMEM16A currents in isolation from A9C‐mediated inhibition, the following stimulation protocol was used. Whole‐cell currents were measured in response to a constant V m of +70 mV and in the presence of 300 nM [Ca^2+]i. Under these recording conditions and in the absence of extracellular A9C, the TMEM16A current remained at a constant amplitude (Figure 5A). When A9C was rapidly applied to the bath solution (concentration jump), the current amplitude rapidly declined before increasing to a new steady‐state level (Figure 5A and 5B). As A9C was removed, a dramatic increase in current was observed followed by a rapid return of the current to the level measured in the absence of A9C (Figure 5A and 5B). […] Rapid washout of A9C led to the fast relief of channel block, while the allosteric activating effect appeared to persist. Thus, the inhibitory effect of A9C was estimated by back‐extrapolating the current amplitude (I b) to the point when the drug was added. The current activation (I a) was measured via back‐extrapolation of the transient current spike observed upon drug washout.
Each cell was exposed to various [A9C]ext, and the extent of blockage at each concentration expressed as I b/I 0. The extent of current activation at each [A9C]ext was assessed as I a/I 0.
To determine if the activating effect of [A9C]ext on the TMEM16A current is V m‐dependent, experiments similar to those described above were performed at constant V m of +10 and +40 mV (Figure 5C). From the average data presented in Figure 5C and Table 2, it can be concluded that both inhibition and activation are V m‐dependent.
As outlined in the previous section, the current inhibition and activation induced by extracellular A9C presented a very similar degree of V m‐dependence. […]

[1] = high (154 mM) [Cl−]ext, 300 nM [Ca2+]i
[2] = low (34 mM) [Cl−]ext, 300 nM [Ca2+]i

Ki (300 nM [Ca2+]i (rounded in Discussion)): ~8.4 mM
δ d (300 nM [Ca2+]i, Woodhull fit): 0.66 ± 0.03
δ i (300 nM [Ca2+]i, Woodhull fit): 0.68 ± 0.03
Kd (300 nM [Ca2+]i, extracellular A9C, Woodhull fit, read-out: K d(0) (apparent dissociation constant from activating site at 0 mV)): 8.95 ± 0.378 mM
Ki (300 nM [Ca2+]i, extracellular A9C, Woodhull fit): 8.37 ± 0.372 mM
I a/I 0 for activation [1]: 2.0 ± 0.1
fractional inhibition (I b/I 0) [1]: 0.70 ± 0.02
I a/I 0 for activation [2]: 8.2 ± 1.1
fractional inhibition (I b/I 0) [2]: 0.46 ± 0.06
h (b) Hill coefficient (activation) (V m 10 mV, 300 nM [Ca2+]i): 1.1 ± 0.1 (n = 9)
γ (a) Hill coefficient (inhibition) (V m 10 mV, 300 nM [Ca2+]i): 0.4 ± 0.1 (n = 9)
EC50 (V m 10 mV, 300 nM [Ca2+]i): 5.23 ± 0.582 mM
IC50 (V m 10 mV, 300 nM [Ca2+]i): 4.71 ± 0.478 mM
h (b) Hill coefficient (activation) (V m 40 mV, 300 nM [Ca2+]i): 1.2 ± 0.1 (n = 11)
γ (a) Hill coefficient (inhibition) (V m 40 mV, 300 nM [Ca2+]i): 0.4 ± 0.1 (n = 11)
EC50 (V m 40 mV, 300 nM [Ca2+]i): 1.12 ± 0.126 mM
IC50 (V m 40 mV, 300 nM [Ca2+]i): 0.849 ± 0.14 mM
h (b) Hill coefficient (activation) (V m 70 mV, 300 nM [Ca2+]i): 1.1 ± 0.1 (n = 11)
γ (a) Hill coefficient (inhibition) (V m 70 mV, 300 nM [Ca2+]i): 0.4 ± 0.1 (n = 11)
EC50 (V m 70 mV, 300 nM [Ca2+]i): 0.44 ± 0.069 mM
IC50 (V m 70 mV, 300 nM [Ca2+]i): 0.171 ± 0.021 mM
electric distance of activating binding site (δ d) (Woodhull analysis, rounded): ~ 0.6
SMILES: O=C(O)c1c2ccccc2cc2ccccc12 [A9C, Anthracene‐9‐carboxylic acid]
